In assay [1] the target is T1, Mu-type opioid receptor (Homo sapiens, UniProt P35372). Put plainly: Antagonist activity at human recombinant mu opioid receptor expressed in AequoScreen cells assessed as aequorin-derived receptor-mediated changes in intracellular calcium levels. It counts as functional, cell-based.
Assay [2] has as its target Beta-2 adrenergic receptor (Cavia porcellus, UniProt Q8K4Z4).
Description: Agonist activity at adrenergic beta2 receptor in guinea pig trachea assessed as relaxation of carbachol-induced tissue contraction
For assay [3], the target named is T1, Mu-type opioid receptor. Briefly: Agonist activity at human recombinant mu opioid receptor expressed in AequoScreen cells assessed as aequorin-derived receptor-mediated changes in intracellular calcium levels. It counts as functional, cell-based. A general note: Calcium flux is commonly read through the fluorescence of an indicator in the cells.
For assay [4], the target named is T1, Mu-type opioid receptor. Put plainly: Displacement of [3H]DAMGO from human recombinant mu opioid receptor expressed in HEK293 cells by scintillation counting. It counts as cell-based. In general terms: Loss of bound radioactivity is the signal in a displacement assay; it reports binding, not function.

pEC50, pIC50, pKi: −log10 of the molar value. Structures can show the parent of a compound that is named as a salt. Calls of active or inactive are those of the source. The calls are words filed in the database; no cut-off is given here.

T1 sequence (P35372 whole entry): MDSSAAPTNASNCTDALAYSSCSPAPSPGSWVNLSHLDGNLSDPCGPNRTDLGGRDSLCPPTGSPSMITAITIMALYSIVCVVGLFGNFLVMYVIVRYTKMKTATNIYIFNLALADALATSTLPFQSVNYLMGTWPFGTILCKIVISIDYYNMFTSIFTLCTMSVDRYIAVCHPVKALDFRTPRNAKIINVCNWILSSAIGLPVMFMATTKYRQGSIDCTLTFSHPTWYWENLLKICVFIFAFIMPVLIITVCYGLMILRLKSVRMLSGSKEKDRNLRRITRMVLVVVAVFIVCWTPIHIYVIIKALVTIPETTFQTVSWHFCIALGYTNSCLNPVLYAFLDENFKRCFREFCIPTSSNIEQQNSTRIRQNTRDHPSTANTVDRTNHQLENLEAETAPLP
Beta-2 adrenergic receptor, sequence (Q8K4Z4 whole entry): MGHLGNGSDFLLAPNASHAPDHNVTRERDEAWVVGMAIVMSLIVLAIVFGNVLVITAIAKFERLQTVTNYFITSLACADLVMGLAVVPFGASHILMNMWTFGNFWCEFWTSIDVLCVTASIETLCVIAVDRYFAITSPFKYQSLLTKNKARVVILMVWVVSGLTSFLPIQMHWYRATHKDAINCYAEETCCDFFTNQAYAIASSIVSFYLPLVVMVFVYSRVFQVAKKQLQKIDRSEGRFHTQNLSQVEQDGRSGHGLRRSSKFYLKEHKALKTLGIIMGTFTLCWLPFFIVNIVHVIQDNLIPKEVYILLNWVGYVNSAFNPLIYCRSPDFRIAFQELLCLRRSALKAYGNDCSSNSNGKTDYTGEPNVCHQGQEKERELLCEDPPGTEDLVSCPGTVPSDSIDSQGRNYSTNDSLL

By pIC50 is commonly meant the IC50 on a negative log10 scale, so that one unit is a factor of ten. Turning to `CC(C)N[C@@H]1CCn2c(=O)[nH]c3cccc(c32)[C@H]1O` [ZILPATEROL HYDROCHLORIDE], the pIC50 in assay [1] is less than 3.00. By pEC50 is commonly meant −log10 of the EC50, conventionally taken in molar units. With `CC(C)(C)NCC(O)c1cc(Cl)c(N)c(Cl)c1` (racemic) [CLENBUTEROL], the pEC50 in assay [2] was 7.89. The term Emax denotes the greatest response seen or fitted, relative to the assay's reference. With `CC(C)N[C@H]1CCn2c(=O)[nH]c3cccc(c32)[C@@H]1O`, in assay [1], the Emax was found to be 96% and the pIC50 was 3.85. Besides, the result in assay [3] was inactive. As a reminder, the pKi is −log10 of the Ki, conventionally taken in molar units. On to `CC(C)N[C@@H]1CCn2c(=O)[nH]c3cccc(c32)[C@H]1O` (racemic) [ZILPATEROL HYDROCHLORIDE], for which the results for the pIC50 in assay [1] and in assay [4] were 3.52 and 4.51, respectively. For the same compound, the pKi in assay [4] is 4.89. Take `CC(C)N[C@@H]1CCn2c(=O)[nH]c3cccc(c32)[C@H]1O` (racemic): the maximum response (Emax) in assay [1] is 93%. Moreover, the outcome in assay [3] was inactive. In the case of `CC(C)N[C@@H]1CCn2c(=O)[nH]c3cccc(c32)[C@H]1O`, the result in assay [3] was inactive.

(Values after ChEMBL document CHEMBL1152790, “Synthesis and pharmacological characterization of beta2-adrenergic agonist enantiomers: zilpaterol” (J Med Chem, 2009).)
